Measured values: patent publication US20070254891A1, “Crystalline forms of 4-(2-fluorophenyl)-6-methyl-2-(piperazin-1-yl)thieno[2,3-d]pyrimidine” (Dynogen Pharmaceuticals, Inc., priority 2006, published 2007)
Where “and” joins values, the source holds several entries; their conditions need not be identical. Identical values can stand only once.

Legend:
[1] = tested on: reduction in bladder capacity seen following continuous infusion of dilute acetic acid; test: Dilute Acetic Acid Model-Cats; type: in vivo, cat; conditions: 3 point dose response, 3.0, 10.0 or 30 mg/ml dosed by body weight; P<0.0103; individual significance at 30 mg/kg
Protocol: Six alpha-chloralose anesthetized (50-100 mg/kg) normal female cats (2,5-3.5 kg; Harlan) were utilized in this study.
Female cats (2.5-3.5 kg; Harlan) had their food removed the night before the study. The following morning, the cats were anesthetized with isoflurane and prepped for surgery using aseptic technique. Polyethylene catheters were surgically placed to permit the measurement of bladder pressure, urethral pressure, arterial pressure, respiratory rate as well as for the delivery of drugs. Fine wire electrodes were implanted alongside the external urethral anal sphincter. […] During control cystometry, saline was slowly infused into the bladder (0.5-1.0 ml/min) for 1 hour. The control cystometry was followed by 0.5% acetic acid in saline for the duration of the experiment.
Data was analyzed using a non-parametric One-Way ANOVA (Friedman Test) with the post-hoc Dunn's multiple comparison t test. P<0.05 was considered significant.

[2] = tested on: irritation-induced reduction in bladder capacity; test: Dilute Acetic Acid Model-Rats (filling cystometry); type: in vivo, rat; conditions: intraduodenal
Source text: The abdominal cavity was moistened with saline and closed by covering with a thin plastic sheet in order to maintain access to the bladder for emptying purposes. Fine silver or stainless steel wire electrodes were inserted into the external urethral sphincter (EUS) percutaneously for electromyography (EMG).
P<0.050 was considered significant.

[3] = tested on: retching and vomiting induced by cisplatin; test: Cisplatin-induced emesis in the ferret; type: in vivo, ferret (Mustela putorius furo)
Protocol: Following administration of the cisplatin and either MCI-225, ondansetron or vehicle alone, the occurrence of retching and vomiting was monitored for a period of 6 hours. […] Vomiting was defined as the forceful oral expulsion of upper gastrointestinal contents. The latency of the retching or vomiting response and the number of episodes were recorded for each animal and summarized for each experimental group (Wright et al., Infect. […] Following one hour of acclimation to the observation cage, ferrets received an intraperitoneal (i.p.) injection of cisplatin (5 mg/kg in 5 mL) followed in about 2 minutes by i.p. injection of a single dose of MCI-225 or ondansetron (Rudd and Naylor, Eur. J. Pharmacol., 322: 79-82 (1997)). […] Each animal received a single-dose drug treatment. In addition, three animals received an initial dose (30 mg/kg i.p.) and a second MCI-225 injection (30 mg/kg i.p.) 180 minutes following the initial dose. […] All groups were randomized.

small intestinal transit = test: Small Intestinal Transit Rodent Model (charcoal meal); type: in vivo, rat; conditions: for Small intestinal transit, Mean (% of total length): 15 min test period
Protocol: Following an overnight fast, rats were brought to the laboratory in their home cages and received an i.p. injection of one of the following: […] Control rats received no treatment. The treated rats were placed back in the home cages and after 30 min, were fed a 2 mL charcoal meal via an oral gavage. Small intestinal transit was measured following 15 min test-period. Each rat was placed briefly in a glass chamber with IsoFlo for anesthesia and sacrificed. The stomach and the small intestine were removed and the total length of the small intestine was measured. Transit was then measured as the distance that the charcoal meal had traveled along the small intestine and expressed as % of the total length. Animals were randomly assigned to experimental groups and experiments were performed as illustrated in Table 11. Small intestinal transit in rats was investigated by the passage of a charcoal meal along the small intestine during a defined time period (15-min). The animals were deprived of food for 12-16 hrs prior to the experiments. Rats were given a charcoal meal (a mixture of charcoal, gum arabic, and distilled water) as a 2 mL oral gavage and were sacrificed after a 15-min test period. The distance traveled by the charcoal meal was quantified as a percent of the small intestinal length, using the following equation: Transit (%)=cm traveled by meal/cm total small intestinal length×100 […]

[4] = tested on: acetic acid-induced colonic hypersensitivity; test: Visceromotor response to colorectal distension in acetic acid-sensitized rats
Protocol: The visceromotor behavioral response to colorectal distension was measured by counting the number of abdominal contractions recorded by a strain gauge sutured onto the abdominal musculature as described in Gunter et al., Physiol. […] A 5 cm latex balloon catheter inserted via the anal canal into the colon was used for colorectal distensions. Constant pressure tonic distensions were performed in a graded manner (15, 30 or 60 mmHg) and were maintained for a period of 10 min and the numbers of abdominal muscle contractions were recorded to measure the level of colonic sensation. A 10 min recovery was allowed between distensions.
J. Physiol. […] In the present study, a low concentration of acetic acid (1.5 ml, 0.6%) was administered intracolonically to sensitize the colon without causing histological damage to the colonic mucosa as described in previous studies (Gunter et al., supra).
Injection volume was 0.2 mL using 100% propylene glycol as the vehicle. Three consecutive colorectal distensions at 15, 30 or 60 mmHg applied at 10-min intervals were recorded. Visceromotor responses were evaluated as the number of abdominal muscle contractions recorded during the 10-min periods of colorectal distension.
Adult male rats were used in the study. […] Specifically, rats were anesthetized with Isoflurane (2%) and were instrumented with a strain gauge force transducer for recording of abdominal muscle contractions. A latex balloon and catheter were inserted 11 cm into the colon. The animals were allowed a 30-min period to completely recover from the anesthesia and were then subjected to intracolonic infusion of acetic acid (1.5 mL, 0.6%). An additional 30-min period was allowed for sensitization of the colon. […] The protocol for colorectal distension was initiated 30-min post drug administration. After a basal reading of the number of abdominal contractions with the balloon inserted but not distended, three consecutive 10-min lasting colorectal distensions at 15, 30, and 60 mmHg were applied at 10-min intervals. Colorectal sensitivity was evaluated by counting the number of reflex abdominal contractions (i.e. the visceromotor response) observed within each distension period.
The visceromotor behavioral response to colorectal distension was measured by counting the number of abdominal contractions recorded by a strain gauge sutured onto the abdominal musculature as previously described Gunter et al., referenced above. Colorectal distensions were carried out utilizing a 5 cm latex balloon catheter inserted into the colon via the anal canal. Constant pressure tonic distensions were performed in a graded manner, i.e., the pressure was increased to the desired level of 15, 30, or 60 mmHg and then maintained for a period of 10 minutes during which the number of abdominal contractions were recorded to measure the level of colonic sensation. Ten minute recovery periods were allowed following each distension.

[5] = tested on: stress-induced accelerated colonic transit; test: Water avoidance stress (WAS) model of increased colonic transit, fecal pellet output; type: in vivo, rat; conditions: 3, 10 or 30 mg/kg i.p.
Source text: At the end of the 1-hour stress period, the fecal pellets were counted and recorded. WAS causes an acceleration of colonic transit, which can be quantified by counting the number of fecal pellets, produced during the stress procedure. Rats were placed for 1-hour into a stress chamber onto a raised platform 7.5 cm×7.5 cm×9 cm (L×W×H) in the center of a stress chamber filled with room temperature water 8 cm in depth. The stress chamber was constructed from a rectangular plastic tub (40.2×60.2×31.2 cm). […] Ondansetron was supplied from APIN Chemicals LTD. […] MCI-225 was provided by Mitsubishi Pharma Corp. All drugs were dissolved in a vehicle of 100% propylene glycol (1,2-propanediol) by sonicating for a period of 10 minutes. Propylene glycol was obtained from Sigma Chemical Co. […] All drugs and the vehicle were administered as an i.p. injection in a volume of 0.2 mL.

[6] = 30 mg/kg b.i.d, second dose 180 minutes after the first

In the case of “4-(2-fluorophenyl)-6-methyl-2-(piperazin-1-yl)thieno[2,3-d]pyrimidine hydrochloride [MCI-225]”, the “Bladder capacity following acetic acid irritation” value [1] is reported as “significant dose-dependent increase”, the “Bladder capacity versus AA/Veh 3” value ([2]; 10 mg/kg, p<0.05 Dunn's test) is reported as “significantly higher than AA/Veh 3” and the “Bladder capacity versus AA/Veh 3” value ([2]; 30 mg/kg, p<0.001 Dunn's test) is reported as “significantly higher than AA/Veh 3”. The Bladder capacity ([2]; 3-30 mg/kg, n=8, p=0.0005 by Friedman test) was “dose-dependent increase”, the “Latency” value ([3]; 1 mg/kg i.p.) was 186 ± 35 min and the “Retches (360 min)” value ([3]; 1 mg/kg i.p.) was 30.4 ± 9.1. The “Total Events” value ([3]; 1 mg/kg i.p.) was 32.9 ± 9.8, the “Vomits (360 min)” value ([3]; 1 mg/kg i.p.) was 2.5 ± 0.7 and the “Latency” value ([3]; 10 mg/kg i.p.) was 192 ± 57 min. For the same substance, the “Retches (360 min)” value ([3]; 10 mg/kg i.p.) was 22.9 ± 10.3, the “Total Events” value ([3]; 10 mg/kg i.p.) was 25.5 ± 11.1 and the “Vomits (360 min)” value ([3]; 10 mg/kg i.p.) was 2.6 ± 1.0. The “Latency” value [3, 6] was 360 ± 0 min, the “Retches (360 min)” value [3, 6] was 0.0 ± 0.0 and the “Total Events” value [3, 6] was 0.0 ± 0.0. For the same substance, the “Vomits (360 min)” value [3, 6] was 0.0 ± 0.0, the “Latency” value ([3]; 30 mg/kg i.p.) was 287 ± 38 min and the “Retches (360 min)” value ([3]; 30 mg/kg i.p.) was 3.3 ± 2.2. For the same substance, the “Total Events” value ([3]; 30 mg/kg i.p.) was 4.0 ± 2.6, the “Vomits (360 min)” value ([3]; 30 mg/kg i.p.) was 0.7 ± 0.5 and the “Retches and vomits induced by cisplatin” value ([3]; 1, 10 or 30 mg/kg i.p.) was “dose-dependent reduction”. For the same substance, the Emetic response ([3]; two doses of 30 mg/kg, b.i.d at a 180-min interval) was “eliminated”, the “Small intestinal transit, Mean (% of total length)” value (small intestinal transit; 3 mg/kg i.p.) was 30.1% and the “Small intestinal transit, Mean (% of total length)” value (small intestinal transit; 10 mg/kg i.p., hydrochloride) was 4.2±2.6% and 4.2%. The “Small intestinal transit, Mean (% of total length)” value (small intestinal transit; 30 mg/kg i.p.) was 8.8%, the “Effect on small intestinal transit compared to the vehicle” value (small intestinal transit; 3, 10 or 30 mg/kg i.p.) was “dose-dependent inhibition” and the “Number of abdominal contractions in response to colorectal distension, compared to the vehicle” value ([4]; 10 mg/kg i.p., 15, 30 and 60 mmHg) was “significant decrease”. For the same substance, the “Effect on visceromotor response relative to lower dose” value ([4]; 30 mg/kg i.p.) was “less effective”, the “Animals in which the visceromotor response to CRD was eliminated” value ([4]; 30 mg/kg i.p., n=6) was 50 % of the animals and the “WAS-induced fecal pellet output during 1 hour” value [5] was “significant dose-dependent inhibition”.
